Measured values taken from PMC9315496, “A Comparison of the Photophysical, Electrochemical and Cytotoxic Properties of meso-(2-, 3- and 4-Pyridyl)-BODIPYs and Their Derivatives” (Sensors (Basel, Switzerland), 2022).
Where two headings read alike, the source gives them in different places. Marks after values point to notes of the source that are not given here.

What was measured:
[1] = Cyclic voltammetry; type: physicochemical
Excerpt: Cyclic voltammograms were collected on a Biologic SP-300 potentiostat using a three-electrode setup with a platinum working electrode (2 mm diameter, CH Instruments), platinum counter electrode (2 mm diameter, CH Instruments), and a silver wire pseudo reference-electrode stored in 0.25 M NBu4PF6 in anhydrous acetonitrile and separated from the electrochemical cell by a glass frit. The electrochemical cell was composed of a borosilicate glass scintillation vial with a custom-machined cap. Working electrodes were polished and then pre-treated by cycling between upper and lower boundaries of the electrochemical window for the experiment in a solution containing only the electrolyte. Measurements were taken in a solution of 0.25 M recrystallized NBu4PF6 in dried and degassed anhydrous acetonitrile. BODIPYs were added to 5 mL of electrolyte solution to give a concentration of 1 mM. Each solution also contained 1 mM ferrocene as an internal reference. Solutions were sparged with N2 before each measurement.

[2] = UV-vis absorption and emission spectroscopy, relative fluorescence quantum yields; type: physicochemical; settings: for λabs / λem: room temperature; for Φf (relative fluorescence quantum yield): standard Ru(bpy)Cl2.6H2O (Φf = 0.028) in H2O, λexc = 436 nm
Description: UV−vis absorption spectra were collected on a Varian Cary 50 Bio spectrophotometer. Emission spectra were obtained on a PerkinElmer LS55 spectrophotometer, at room temperature. Spectrophotometric grade solvents and quartz cuvettes (1 cm path length) were used. Relative fluorescence quantum yields (Φf) were calculated using rhodamine 6G (Φf = 0.86 in methanol) as reference for the neutral BODIPYs and Ru(bpy)Cl2.6H2O (Φf = 0.028 in water) as the standard for the cationic BODIPYs using the following equation: Φx = Φst × Gradx/Gradst × (ηx/ηst)^2, where the ΦX and ΦST are the quantum yields of the sample and standard, GradX and GradST are the gradients from the plot of integrated fluorescence intensity vs. absorbance, and η represents the refractive index of the solvent (x is for the sample and st for the standard).

[3] = system: HEp2 cells; experiment: Dark cytotoxicity, Cell Titer Blue; type: cell-based; settings: Homo sapiens, HEp-2, 24 h incubation, read-out: Dark Toxicity (IC50)
Description: (§1) Human carcinoma HEp2 cells were obtained from ATCC and maintained in a 75 cm^2 flask (Chemglass) with 1× MEM (Eagle’s minimal essential medium) containing 10% FBS (fetal bovine serum) and 1% antibiotic (penicillin–streptomycin) in a humidified, 5% CO2 incubator at 37 °C. Stock solutions with a concentration of 32 mM in DMSO were prepared for each BODIPY. The stock solution was diluted to the final working concentrations with culture medium. The HEp2 cells were plated at 7500–10,000 cells per well in a Costar 96-well plate and allowed to grow for 24 h. The BODIPY stock solution was diluted to a 200 μM working solution and two-fold serial dilutions were prepared with final concentrations of 200, 100, 50, 25, 12.5, 6.25, and 0 μM. Each BODIPY was incubated for 24 h at 37 °C under 5% CO2. For the dark cytotoxicity experiments, after incubation, excess BODIPY was removed by washing the cells three times with 1× PBS (phosphate-buffered saline) and replacing with media containing 20% Cell Titer Blue (Promega, Madison, WI, USA). The cells were then incubated for additional 24 h at 37 °C under 5% CO2 and the cell toxicity was determined by fluorescence intensity at ex 570/em 615 nm using a FluoStar Optima microplate reader (BMG Labtech, Cary, NC, USA).

[4] = system: HEp2 cells; experiment: Phototoxicity (1.5 J/cm^2), Cell Titer Blue; type: cell-based; settings: Homo sapiens, HEp-2, light or radiation study, light dose 1.5 J/cm^2
Description: as §1
For the phototoxicity experiments, after incubation the cells were exposed to a light dose of ~1.5 J/cm^2 generated using a 600 W Quartz Tungsten Halogen lamp (Newport Corporation, Irvine, CA, USA). The cells were exposed for 20 min while the 96-well plate rested on an EchoTherm chilling plate (Torrey Pines Scientific, Carlsbad, CA, USA) set to 5 °C. Following light exposure, the loading media was removed and media containing 20% Cell Titer Blue was added. After incubation for 24 h at 37 °C under 5% CO2, the cell viability was determined as described above.

[5] = cited from earlier work
[6] = vs. Fc^+/Fc, 100 mV/s, acetonitrile, 0.25 M NBu4PF6

## CC1=CC(C)=[N+]2C1=C(c1ccc[n+](C)c1)c1c(C)cc(C)n1[B-]2(F)F [3catPy, 1,3,5,7-Tetramethyl-8-(N-methyl-3-pyridyl)-BODIPY Iodide]
[1]
  first reduction, more negative than the two-electron reduction in 4catPy: 200 mV
  second reduction, more negative than the two-electron reduction in 4catPy: 480 mV
[1]; [6]
  E1/2red, first one-electron reduction: −1.26 V
  E1/2red, second one-electron reduction: −1.54 V
[1]; vs. Fc^+/Fc, 100 mV/s, acetonitrile, 0.25 M NBu4PF6, PF6^− counterion
  E1/2ox: +0.89 V
[2]; CH3CN
  Stokes Shift: 22 nm
  ε (molar extinction coefficient): 65,460 M^−1 cm ^−1
  λabs: 510 nm
  λem: 532 nm
  Φf (relative fluorescence quantum yield): 0.006
[2]; CH3CN, listed as 3catPy (I^−)
  Φf (relative fluorescence quantum yield): 0.006 ^b
[2]; H2O
  Stokes Shift: 20 nm
  ε (molar extinction coefficient): 37,320 M^−1 cm ^−1
  λabs: 510 nm
  λem: 530 nm
  Φf (relative fluorescence quantum yield): 0.005 ^b
[2]; acetonitrile, experimental
  bathochromic shift of maximum absorption wavelength upon methylation: 8 nm
[3]
  IC50: > 200 µM
[4]
  IC50: > 100 µM

## CC1=C(Cl)C(C)=[N+]2C1=C(c1ccncc1)c1c(C)c(Cl)c(C)n1[B-]2(F)F [4PyCl2]
[5]; CH3CN
  Stokes Shift: 18 nm
  Φf (fluorescence quantum yield): 0.58
  ε (molar extinction coefficient): 50,800 M^−1 cm ^−1
  λabs: 528 nm
  λem: 546 nm

## CC1=CC(C)=[N+]2C1=C(c1ccncc1)c1c(C)cc(C)n1[B-]2(F)F [4Py]
[3]
  IC50: > 200 µM
[4]
  IC50: > 100 µM
[5]; CH3CN
  Stokes Shift: 14 nm
  Φf (fluorescence quantum yield): 0.31
  ε (molar extinction coefficient): 72,100 M^−1 cm ^−1
  λabs: 501 nm
  λem: 515 nm

## CC1=C(Cl)C(C)=[N+]2C1=C(c1cc[n+](C)cc1)c1c(C)c(Cl)c(C)n1[B-]2(F)F [4catPyCl2]
[1]
  two-electron reduction shift positive compared with 4catPy: 180 mV
[1]; 100 mV/s
  anodic peak shift positive compared with the corresponding unchlorinated BODIPY: 180 mV
[1]; [6]
  E1/2red, two-electron reduction to doubly reduced state: −0.89 ^e V
[1]; vs. Fc^+/Fc, value at 1 V/s, acetonitrile, 0.25 M NBu4PF6
  E1/2ox: +1.03 ^d V
[2]; water
  fluorescence enhancement relative to the non-chlorinated pyridinium BODIPY: 10 fold
[5]; CH3CN
  Stokes Shift: 62 nm
  Φf (fluorescence quantum yield): 0.048
  ε (molar extinction coefficient): 23,400 M^−1 cm ^−1
  λabs: 538 nm
  λem: 600 nm
[5]; H2O
  Stokes Shift: 65 nm
  Φf (fluorescence quantum yield): 0.038
  ε (molar extinction coefficient): 11,640 M^−1 cm ^−1
  λabs: 540 nm
  λem: 605 nm

## O.O.O.O.O.O.[Cl-].[Cl-].[Ru+2].c1ccc(-c2ccccn2)nc1.c1ccc(-c2ccccn2)nc1.c1ccc(-c2ccccn2)nc1 [Ru(bpy)Cl2.6H2O, reference compound]
[5]; in water
  Φf of the reference standard: 0.028

## CC/N=c1\cc2oc3cc(NCC)c(C)cc3c(-c3ccccc3C(=O)OCC)c-2cc1C [rhodamine 6G, reference compound]
[5]; in methanol
  Φf of the reference standard: 0.86
